# Where a name gives a salt, the structure may show the parent alone. Where a SMILES comes first, the peptide text is derived from it. [ ]: non-standard residue; d: D form. Sar = CNCC(=O)O
# Experiments:
# CML-KLS+ cells [1] = test: Metabolomic analysis of CML-KLS+ cells treated in vitro with protein degradation inhibitors; type: cell-based, mouse; details: 100 nM, 2 hrs in vitro, hypoxic (3% O2)
# Experimental: (§1) To detect inhibition of dipeptide uptake in vivo, immature KLS^+ cells were isolated from tet-inducible CML-affected (Tal1-tTA^+TRE-BCR-ABL1^+) mice (n=4 mice in each of the three independent experiments), and normal healthy littermate (Tal1-tTA^+) mice (n=6 mice in each of the two independent experiments) that had received vehicle or cefadroxil (36 mgKg^−1day^−1) by oral gavage for 30 days. […] In all cases, isolated cell pellets were frozen at −80° C. immediately after obtaining. Metabolomic profiling was performed by Metabolon Inc. (Durham, N.C.) using ultrahigh-performance liquid chromatography/mass spectroscopy (UPLC/MS/MS) and gas chromatography/MS (GC/MS). Data were compiled using the Metabolon LIMS (Laboratory Information Management System). The UPLC/MS/MS portion of the platform was based on a Waters Acquity UPLC (Waters) and a Q-Exactive high-resolution/accurate mass spectrometer (Thermo Scientific) interfaced with a heated electrospray ionization (HESI-II) source and Orbitrap mass analyzer. GC/MS was performed by a Trace DSQ fast-scanning single-quadrupole mass spectrometer using electron impact ionization (Thermo-Finnigan).
# AMPK = test: Duolink in situ PLA, AMPK phosphorylation in LT-CML cancer stem cells; type: cell-based, mouse; details: LT-CML cancer stem cells in vitro
# Experimental: (§2) To examine phosphorylation of Smad2, Smad3, p38MAPK, AMPK, and S6 ribosomal protein, and Foxo3a-Smad2 and Foxo3a-Smad3 interactions, Duolink® in situ PLA assay (Olink Bioscience) was used. LT-CML stem cells, ST-CML stem cells, CD48^+, MPP, and KLS^− CML cells that were freshly isolated from CML-affected mice, and LT-normal HSCs that were freshly isolated from healthy control littermates, were immediately fixed with 4% paraformaldehyde for 30 min.
# (§3) For in vitro inhibitor experiments, LT-CML stem cells were incubated in 3% O2 at 37° C. for 30 min with vehicle (control; artificial gastric fluid solution (900 ml ddH2O containing 2.0 g of NaCl, 7 ml of conc. HCl and 3.2 g of pepsin)), 5 μM Ly364947 (TGF-β type I receptor kinase Alk5 inhibitor; Merck), 5 μM SB203580 (p38MAPK inhibitor; LC Laboratories), 5 μM GlySar (dipeptide transporter inhibitor; Sigma-Aldrich), 5 μM cefadroxil (dipeptide transporter inhibitor; Sigma-Aldrich), or 100 nM rapamycin (mTORC1 inhibitor; Cell Signaling Technologies). Treated cells were fixed with 4% paraformaldehyde for 30 min, and treated with 0.25% Triton X-100 for 15 min, washed and blocked by incubation in 5% FBS in TBS for 1 hr.
# (§4) The proximate binding of these antibodies was then detected using Duolink® in situ PLA system which employs a set of two secondary antibodies in which one is conjugated to a minus strand PLA probe and the other is conjugated to a plus strand PLA probe. Nuclei were stained with DNA marker DAPI (Sigma). Stained slides were mounted using Fluoromount Plus (Diagnostic Biosystems) and fluorescent images were acquired by confocal microscopy (FV10i, Olympus) and Photoshop software (Adobe). The number of fluorescent foci per single cell was quantified using Duolink®Image Tool software (Olink Bioscience).
# Raptor-Ser792 = Raptor-Ser792 phosphorylation in LT-CML cancer stem cells; type: cell-based, mouse; details: LT-CML cancer stem cells in vitro
# Raptor-Ser863 = test: Duolink in situ PLA, Raptor-Ser863 phosphorylation in LT-CML cancer stem cells; type: cell-based, mouse; details: 30 min; GlySar or cefadroxil 5 μM; rapamycin 100 nM
# Experimental: as §2
# as §3, with “Treated cells were fixed with 4% paraformaldehyde for 30 min, and treated with 0.25% Triton X-100 for 15 min, washed and blocked by incubation in 5% FBS in TBS for 1 hr.” left out
# (§5) The proximate binding of these antibodies was then detected using Duolink® in situ PLA system which employs a set of two secondary antibodies in which one is conjugated to a minus strand PLA probe and the other is conjugated to a plus strand PLA probe. […] The number of fluorescent foci per single cell was quantified using Duolink®Image Tool software (Olink Bioscience).
# S6 ribosomal protein = test: Duolink in situ PLA, S6 ribosomal protein phosphorylation in LT-CML cancer stem cells; type: cell-based, mouse; details: 30 min; GlySar or cefadroxil 5 μM; rapamycin 100 nM
# Experimental: as §2
# as §3, with “Treated cells were fixed with 4% paraformaldehyde for 30 min, and treated with 0.25% Triton X-100 for 15 min, washed and blocked by incubation in 5% FBS in TBS for 1 hr.” left out
# as §5
# Smad3 Ser208 = test: Duolink in situ PLA, Smad3 Ser208 phosphorylation in LT-CML cancer stem cells; type: cell-based, mouse
# Experimental: as §2, §3, §4
# CML-KLS+ cells [2] = test: Metabolomic analysis of dipeptides in KLS+ cells from treated CML-affected mice; type: in vivo, mouse; details: IM 100 mg/kg/day for 30 days (1 month)
# Experimental: as §1
# SLC15A2 mRNA = details: nine CML patients, 1 month after IM therapy; public database; cited from earlier work
SMILES,dipeptide accumulation (CML-KLS+ cells [1]),individual amino-acid levels (CML-KLS+ cells [1]),phosphorylation of AMPK (AMPK),Raptor-Ser792 phosphorylation (Raptor-Ser792),further results
CO/C1=C\C(C)=C\[C@@H](C)[C@@H](O)[C@@H](C)C/C(C)=C/C=C/[C@H](OC)[C@@H]([C@@H](C)[C@@H](O)[C@H](C)[C@@]2(O)C[C@@H](O)[C@H](C)[C@@H](C(C)C)O2)OC1=O [Bafilomycin A1],increased significantly,decreased,–,–,–
CN(C)C(=N)N=C(N)N [Metformin],–,–,increases,increases,–
"CN(CC(=O)O)C(=O)CN [GlySar, glycylsarcosine] (H-Gly-[Sar]-OH)",–,–,increased,did not promote,"phosphorylation of Raptor-Ser863 (Raptor-Ser863): decreased phosphorylation; phosphorylation of S6 (S6 ribosomal protein): decreased phosphorylation; Smad3 Ser208 phosphorylation (Smad3 Ser208; 30 min, GlySar or cefadroxil 5 μM, rapamycin 100 nM): blocked"
CC(C)C[C@H](NC(=O)[C@H](Cc1ccccc1)NC(=O)c1cnccn1)B(O)O [Bortezomib],increased significantly,decreased,–,–,–
"Cc1ccc(NC(=O)c2ccc(CN3CCN(C)CC3)cc2)cc1Nc1nccc(-c2cccnc2)n1 [IM, imatinib mesylate]",–,–,–,–,dipeptide levels in CML-KLS+ cells (CML-KLS+ cells [2]): tended to decrease; SLC15A2 mRNA levels in CML patients (SLC15A2 mRNA): decreased to a level comparable to that in healthy individuals; levels of phospho-Smad3-Ser208 (Smad3 Ser208; IM treatment of murine LT-CML stem cells in vitro): reduced

# From US10322136B2, “Composition for inhibiting growth or proliferation of chronic myelogenous leukemia cancer stem cells, and screening method therefor” (HIROSHIMA UNIVERSITY, priority 2015, dated 2019)
